Source: patent US20160038490A1, “COMPOSITIONS AND METHODS FOR TREATING DYSPROLIFERATIVE DISEASES” (ANGION BIOMEDICA CORP., priority 2012, published 2016)
Read-outs that look alike come from different tables or passages of the source.

Assays:
SK-BR-3 cells [1] = assay: Cell proliferation, Cell Titer Glo, checkerboard design; type: cell-based; settings: for EC50: Homo sapiens
Procedure: The effect of all-trans retinoic acid (ATRA), a CYP26 inhibitor and their combination was studied using two HER2+ RARA+ breast cancer cell lines: AU565 and SK-BR-3. Cells were plated in a 96-well plate and treated with compounds in a “checkerboard” design. After 7 days the cell proliferation was determined using the Cell Titer Glo reagent (Promega).
(§1) This provides a strong rationale for the simultaneous targeting of both signaling pathways in breast cancer patients.

SK-BR-3 cells [2] = assay: ATRA metabolism in breast cancer cells; type: cell-based; settings: 2×10^6 SK-BR-3 cells treated with 100 nM ATRA, no CYP26 inhibitor
Procedure: To directly test whether ATRA induces its own metabolism, we treated 2×10^6 SK-BR-3 cells with 100 nM ATRA and determined the ATRA concentration after 24 hours. Significant metabolism of ATRA was found (FIG. 4), with the ATRA concentration dropping to 6 nM after 24 hrs.

SK-BR-3 cells [3] = assay: Apoptosis assay (Caspase 3/7 assay); type: cell-based
Excerpt: as §1

[4] = test system: SK-BR-3 breast cancer cells; assay: Breast cancer xenograft study; settings: SK-BR-3 xenograft, immuno-compromised mice; CYP26 inhibitor 10 mg/kg po qd×5, Lapatinib 100 mg/kg po qd×5; compared to vehicle
Procedure: Once palpable tumors were established in immuno-compromised mice, animals were randomized to four treatment groups: (1) Vehicle, (2) CYP26 inhibitor (10 mg/kg, po, qd×5), (3) the EGFR/HER2 inhibitor Lapatinib (100 mg/kg, po, qd×5) or (4) the combination of the two (10 mg/kg CYP26 inhibitor and 100 mg/kg Lapatinib).

| SMILES | EC50 (SK-BR-3 cells [1]; 168 h, SK-BR-3, 7 days, ATRA alone, estimated, read-out: EC50, inhibition of cell growth) [µM] | effect on cell growth (SK-BR-3 cells [1]; SK-BR-3, lapatinib/ATRA experiment) | ATRA concentration after 24 hours (SK-BR-3 cells [2]) [nM] | effect on Caspase 3/7 activity (SK-BR-3 cells [3]; SK-BR-3, synergy analyzed with Bliss additivity model) | tumor progression / tumor growth inhibition [4] | EC50 (SK-BR-3 cells [1]; SK-BR-3, lapatinib alone, read-out: EC50, inhibition of cell growth in the absence of ATRA) [µM] | induction of Caspase 3/7 activity (SK-BR-3 cells [3]; SK-BR-3, 24 hours incubation, absence of ATRA) [fold] |
| --- | --- | --- | --- | --- | --- | --- | --- |
| CC1=C(/C=C/C(C)=C/C=C/C(C)=C/C(=O)O)C(C)(C)CCC1 [ATRA, all-trans retinoic acid] | ~0.04 | inhibited breast cancer cell growth | 6 | small effect |  |  |  |
| CS(=O)(=O)CCNCc1ccc(-c2ccc3ncnc(Nc4ccc(OCc5cccc(F)c5)c(Cl)c4)c3c2)o1 [lapatinib] |  |  |  |  | Markedly reduced tumor progression | 0.064 | ~2 |
